Assay results reported in US20080207572A1, “Use of Dual C-Kit/Fgfr3 Inhibitors for Treating Multiple Myeloma” (AB Science, priority 2005, published 2008).

Key:
Type in all cases: cell-based
[1] = test system: human mast cell line expressing the JMΔ27 mutated c-kit; assay: Apoptosis induction in mast cell line; conditions: 0.1 μM, after 48 hours; control cells 10% apoptotic
Description: (§1) In this experiment, after 48 hours, 0.1 μM AB1010 induced apoptosis of approximately 50% versus control cells in which 10% of cells were apoptotic. In addition, a separate cell line (Ba/F3-derived) expressing JMΔ27 was tested and apoptosis was induced to a level of approximately 85%.

[2] = test system: cell line (Ba/F3-derived) expressing JMΔ27; assay: Apoptosis induction in Ba/F3-derived cell line
Description: as §1

[3] = test system: t(4; 14) FGFR3+ human plasma cell line LP1; assay: FGF-enhanced proliferation (3H-Thymidine uptake); conditions: in the presence of FGF; FIG. 2
Description: In the presence of FGF, the proliferation of the t(4; 14) FGFR3+ human plasma cell line is enhanced, as measured by 3H-Thymidine uptake.

For `Cc1ccc(NC(=O)c2ccc(CN3CCN(C)CC3)cc2)cc1Nc1nc(-c2cccnc2)cs1` [AB1010], the apoptosis induced [1] was “approximately 50%”, the apoptosis induced [2] was “approximately 85%” and the “inhibition of FGF-enhanced proliferation” value [3] was “inhibit the FGF-enhanced proliferation”.
